Data on two molecules can be found in US5741785A, “Heterocyclic compounds, their preparation and use” (Novo Nordisk A/S, priority 1994, dated 1998).

Assay [1] deals with quisqualic acid stimulated spreading depression in chicken retina. Description: Spreading depression (Test 2), quisqualic acid stimulated, chicken retina. The class given is cell-based. The note with it: Gallus gallus, quisqualate 1 μg/ml, 15 min preincubation, 26° C., read-out: IC50 (50% maximal inhibition of quisqualic acid stimulated spreading depression), TEST 2. The text has this: The influence of glutamic acid analogues on secondary effects of glutamate receptor interactions may be studied in vitro by using the phenomenon of spreading depression in chicken retina. Such experiments will provide information as to the efficacies (agonist/antagonist) of the test substances. This is in contrast to binding studies, which only provide information on the affinities of the compounds for the receptor.
The pharmacological properties of the compounds of the present invention can be illustrated by determining their capability for displacing radioactively labelled 2-amino-3-hydroxy-5-methyl-4-isoxazolepropionic acid (AMPA) from the AMPA type receptors. […]
The eyes were initially incubated in normal P.S.S. for 15-30 min. and then transferred to P.S.S. containing quisqualate (1 μg/ml). In this "stimulating solution" S.D.s start spontaneously usually from the edge of the retina, and can be easily observed by eye, The time taken for an S.D. to start in each eye was measured.
After a further 15 min. of incubation in normal P.S.S. the eyes were transferred to normal P.S.S, containing the test compound and incubated for 15 min. […] The time taken for an S.D. to start in each eye was measured again. The eyes were then placed back in normal P.S.S. and after 15 min. the time taken for S.D. to start was measured again, in order to assess the degree of recovery from any drug effects. […]

Another assay addresses AMPA type receptors. Description: 3H-AMPA binding (Test 1), rat cerebral cortical membrane homogenate. The following applies: 5 nM 3H-AMPA, 0° C., 30 min, pH 7.1, Hill analysis; read-out: IC50 (50% displacement of the specific binding of 3H-AMPA), TEST 1. From the text: AMPA receptor binding may be studied by using ^3 H-AMPA as radioligand.
The pharmacological properties of the compounds of the present invention can be illustrated by determining their capability for displacing radioactively labelled 2-amino-3-hydroxy-5-methyl-4-isoxazolepropionic acid (AMPA) from the AMPA type receptors.
The displacement activity of the compounds may be shown by determining the IC50 value which represents the concentration (μM) which causes a displacement of 50% of the specific binding of ^3 H-AMPA.
^3 H-AMPA binding (Test 1)
500/μl of thawed rat cerebral cortical membrane homogenate in Tris-HCl (30 mM), CaCl2 (2.5 mM) and KSCN (100 mM) pH 7.1 were incubated at 0° C. for 30 min. with 25 μl ^3 H-AMPA (5 nM final concentration) and the test compound and buffer. Nonspecific binding was determined by incubation with L-glutamic acid (600/μM final concentration). The binding reaction was terminated by adding 5 ml of ice-cold buffer followed by filtration through Whatman GF/C glass fibre filters and 2×5 ml wash with ice-cold buffer. Bound radioactivity was measured by scintillation counting. IC50 was determined by Hill analysis of at least four concentrations of test compound.

The subject of the next assay is AMPA receptor. The note with it: reported in J. Med. Chem., 35, 3319-3324, 1992; cited from earlier work.

Take `Cc1c(C(=O)O)nc2c(=O)[nH]c3cc(C(F)(F)F)ccc3n12` [Example 2, 2-Carboxy-1-methyl-7-trifluoromethylimidazo[1,2-a]quinoxalin-4(5H)-one]: the IC50 (as a rule, the midpoint of a concentration-inhibition curve) in assay [1] was found to be 1100 nM; on AMPA type receptors it was 450 nM.
Consider `O=c1[nH]c2cc(Cl)c(Cl)cc2n2ccnc12` [7,8-dichloro-imidazo[1,2-a]quinoxaline-4(5H)-one], for which, in the assay on AMPA receptor, the “affinity for the AMPA receptor” value is “reasonable affinity”.
